Key:
[1] = molecular target: T1, Human sEH Cterm-EH activity (Homo sapiens, UniProt P34913); assay: Cterm-EH inhibition IC50 with 4-nitrophenyl-trans-2,3-epoxy-3-phenylpropyl carbonate; assay type: biochemical; conditions: substrate 50 μM, 5 min preincubation, 30° C.; read-out: IC50
T1 construct: use of a truncated enzyme from crude extract versus purified full-length human sEH; made in house; host or cells: baculovirus expression system (insect cells)
T1 sequence (P34913 1-555): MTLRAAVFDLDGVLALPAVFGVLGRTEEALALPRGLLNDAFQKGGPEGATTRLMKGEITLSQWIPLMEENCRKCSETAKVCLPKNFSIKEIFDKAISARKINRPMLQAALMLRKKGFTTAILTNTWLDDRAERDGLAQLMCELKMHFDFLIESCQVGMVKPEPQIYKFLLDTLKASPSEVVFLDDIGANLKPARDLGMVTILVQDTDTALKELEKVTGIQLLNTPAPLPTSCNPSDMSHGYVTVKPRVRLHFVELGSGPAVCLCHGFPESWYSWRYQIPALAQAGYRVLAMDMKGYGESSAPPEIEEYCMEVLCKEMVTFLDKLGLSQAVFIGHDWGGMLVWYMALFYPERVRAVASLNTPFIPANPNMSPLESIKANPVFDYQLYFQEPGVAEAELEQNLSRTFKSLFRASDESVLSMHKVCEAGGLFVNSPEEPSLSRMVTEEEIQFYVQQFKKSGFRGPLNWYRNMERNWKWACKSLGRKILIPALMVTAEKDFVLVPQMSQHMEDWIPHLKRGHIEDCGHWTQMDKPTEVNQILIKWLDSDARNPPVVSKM

cress sEH = assay: EH activity inhibition, cress sEH; assay type: biochemical, mouse-eared cress
Description: (§1) Recombinant human sEH (HsEH) was produced in a baculovirus expression system (Beetham et al., Arch. Biochem. Biophys. 305, 197-201 (1993)) and purified by affinity chromatography (Wixtrom et al., Anal. Biochem. 169, 71-80 (1983)). […] No detectable esterase or glutathione transferase activities were observed. Recombinant mouse-eared cress sEH was produced in a baculovirus expression system and purified as described (Morisseau et al., Arch. Biochem. Biophys. 378, 321-332 (2000)). The nucleotide sequence of the C-terminal region (Mel^[…]) of human sEH was amplified by PCR using [NT] as forward primer and [NT] as reverse primer. The resulting band was gel purified and restricted with EcoR1 and Sal1, which were introduced by the primers, and the restricted fragment sub-cloned into the multiple cloning site of the pFastBac1 vector (Invitrogen). After verification of the obtained nucleotide sequence, the recombinant pFastBac1 plasmid was introduced in competent DH10bac cells leading to the formation of a recombinant plasmid containing the DNA insert. The isolated recombinant plasmid was used to produce recombinant baculovirus in Sf21 cells following procedures recommended by the manufacturer. The truncated HsEH was produced in high-5 Trichloplusia ni cell cultures following published procedures (Beetham et al., Arch. Biochem. Biophys. 305, 197-201 (1993)). Seventy-two hours post infection, the cells were collected by centrifugation (2,000 g×20 min). The cell pellet was then suspended in a sodium phosphate buffer (76 mM, pH 7.4) containing 1 mM of phenylmethylsulfonyl fluoride, EDTA and dithiothretol. The suspension was then homogenized by Polytron at 9,000 rpm for 1 min and centrifuged (10,000 g×20 min). The resulting supernatant was frozen at -80° C. until used for experiments. […] Protein concentrations were quantified with the Pierce BCA assay (Pierce; Rockford, Ill.) using Fraction V bovine serum albumin (BSA) as the calibrating standard. Nterm-Phos activity was measured in Bis-Tris HCl buffer (25 mM PH 7.0) containing 0.1 mg/mL of Fraction V BSA and 1 mM of MgCl2 (buffer A) at 30° C. […] APHP activity was measured as described using 7 as substrate (Newman et al., Proc. Natl. Acad. Sci. USA. 100, 1558-1563 (2003)). Compounds 34-37 were incubated separately with the enzyme for a given time, and then the reaction was stopped by the addition of 100 μL of methanol. The reaction products for compounds 34-37 were extracted with 500 μL of ethyl acetate. The quantification of the alcohol products was performed by LC/MS analysis of 2 μL of the organic phase. […] Biochem. 231, 188-200 (1995)). This latter substrate was also used to measure the activity of the cress sEH and the truncated human sEH.

full length human sEH = molecular target: T2, full length human sEH (Homo sapiens, UniProt P34913); assay: EH activity inhibition, full length human sEH; assay type: biochemical
T2 construct: use of a truncated enzyme from crude extract versus purified full-length human sEH; made in house; host or cells: baculovirus expression system (insect cells)
T2 sequence (P34913 1-555): T1 sequence (P34913 1-555)
Protocol: Nterm-Phos activity was measured in Bis-Tris HCl buffer (25 mM PH 7.0) containing 0.1 mg/mL of Fraction V BSA and 1 mM of MgCl2 (buffer A) at 30° C. […] APHP activity was measured as described using 7 as substrate (Newman et al., Proc. Natl. Acad. Sci. USA. 100, 1558-1563 (2003)). Compounds 34-37 were incubated separately with the enzyme for a given time, and then the reaction was stopped by the addition of 100 μL of methanol. The reaction products for compounds 34-37 were extracted with 500 μL of ethyl acetate. The quantification of the alcohol products was performed by LC/MS analysis of 2 μL of the organic phase. The Cterm-EH activity was measured as described previously in buffer A, using either racemic 4-nitrophenyl-trans-2,3-epoxy-3-phenylpropyl carbonate (Dietze et al., Anal. Biochem. 216, 176-187 (1994)) or racemic [^3H]-trans-1,3-diphenylpropene oxide as substrate (Borhan et al., Anal. Biochem. 231, 188-200 (1995)). This latter substrate was also used to measure the activity of the cress sEH and the truncated human sEH.

[2] = molecular target: T1, Human sEH Cterm-EH activity; assay: Cterm-EH dissociation constant with [3H]-trans-1,3-diphenylpropene oxide; assay type: biochemical
Protocol: For the Cterm-EH activity, dissociation constants were determined using racemic [^3H]-trans-1,3-diphenylpropene oxide as substrate. […] Velocity was measured as described (Borhan et al., Anal. Biochem. 231, 188-200 (1995)). […] Results are mean±standard deviation of three separate determination of KI.

Nterm-phos = molecular target: T3, Nterm-phos (Homo sapiens, UniProt P34913); assay: Sulfates tested as substrates for Nterm-phos (LC-MS of alcohol or diol); assay type: biochemical; conditions: enzyme 400 nM, compound 100 μM, one hour
T3 construct: use of a truncated enzyme from crude extract versus purified full-length human sEH; made in house; host or cells: baculovirus expression system (insect cells)
T3 sequence (P34913 1-555): T1 sequence (P34913 1-555)
Protocol: To understand the mode of action of these new inhibitors, compounds 1 and 2 were tested as substrates for the Nterm-phos. Enzyme was incubated (400 nM) with the compounds (100 μM) for an hour and analyzed the mixture by LC-MS to detect any alcohol or diol formed (Newman et al., Proc. Natl. Acad. Sci. USA. 100, 1558-1563 (2003)). Formation of any alcohol or diol was not detected.

truncated human sEH = molecular target: T4, truncated human sEH (Homo sapiens, UniProt P34913); assay: EH activity inhibition, N-terminally truncated human sEH; assay type: biochemical
T4 construct: C-terminal region (Mel^237-Met^554) of human sEH was amplified by PCR; made in house; host or cells: baculovirus (pFastBac1) in high-5 Trichoplusia ni cells; 10,000 g supernatant used as crude extract
T4 sequence (P34913 237-555 limits assumed): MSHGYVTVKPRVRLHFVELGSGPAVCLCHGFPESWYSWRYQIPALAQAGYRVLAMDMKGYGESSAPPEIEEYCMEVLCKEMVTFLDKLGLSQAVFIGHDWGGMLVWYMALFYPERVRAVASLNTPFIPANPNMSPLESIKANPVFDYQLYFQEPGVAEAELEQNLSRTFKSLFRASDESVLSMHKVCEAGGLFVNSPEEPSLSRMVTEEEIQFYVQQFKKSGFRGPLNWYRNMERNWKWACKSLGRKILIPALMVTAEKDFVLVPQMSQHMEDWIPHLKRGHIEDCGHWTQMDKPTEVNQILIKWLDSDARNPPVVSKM
Description: as §1

Row | Compound | IC50 [1] | inhibition at 100 µM (full length human sEH) | KI at Cterm-EH relative to KI at Nterm-Phos [2] | Ki ([2]; non-competitive inhibition, n=3) | Formation of any alcohol or diol (Nterm-phos) | inhibition at 100 µM (truncated human sEH) | Inhibition at 100 μM (%) (cress sEH)
1 | CCCCCCCCC(OS(=O)(=O)O)C(O)CCCCCCCC(=O)O (stereo not drawn) [Compound 2, 9/10-Sulfonooxy-hydroxy-octadecanoic acid] | 90 ± 5 µM | 54 ± 3% | – | – | not detected | 58 ± 2% | <2%
2 | CCCCCCCCCC(CCCCCCCC)OS(=O)(=O)O (stereo not drawn) [Compound 3, 9-Octadecanyl-sulfate] | 21 ± 5 µM | 72 ± 2% | – | – | – | 67 ± 3% | <2%
3 | CCCCCCC(C/C=C\CCCCCCCC(=O)O)OS(=O)(=O)O (stereo not drawn) [Compound 4, 12-Sulfonoxy-cis-9-octadecenoic acid] | > 100 µM | 26 ± 3% | – | – | – | 16 ± 2% | <2%

Now from value to molecule, other results behind:

Row | IC50 [1] | inhibition at 100 µM (full length human sEH) | KI at Cterm-EH relative to KI at Nterm-Phos [2] | Ki ([2]; non-competitive inhibition, n=3) | Formation of any alcohol or diol (Nterm-phos) | inhibition at 100 µM (truncated human sEH) | Compound | Inhibition at 100 μM (%) (cress sEH)
4 | 28 ± 2 µM | 86 ± 2% | roughly 100 fold | 31 ± 2 µM | not detected | 89 ± 3% | CCCCCCCCC(CCCCCCCCC(=O)O)OS(=O)(=O)O (stereo not drawn) [Compound 1, 10-Sulfonooxy-octadecanoic acid] | <2%
5 | 16 ± 3 µM | 68 ± 2% | – | – | – | 44 ± 4% | CCCCCCC(C/C=C/CCCCCCCC(=O)O)OS(=O)(=O)O (stereo not drawn) [Compound 5, 12-Sulfonoxy-trans-9-octadecenoic acid] | <2%

Reference: US20090215894A1, “INHIBITION OF PHOSPHATASE ACTIVITY OF SOLUBLE EPOXIDE HYDROLASE AMINO TERMINUS AND USES THEREOF” (REGENTS OF THE UNIVERSITY OF CALIFORNIA, priority 2005, published 2009)
